Values joined by “and” are separate entries in the source; they are usually repeats but may differ in a detail not shown here. Identical values can stand only once. Like-named read-outs stand apart in the source and are kept apart here.
Columns and labels:
MCF-7 = experiment: MTT cytotoxicity assay against breast cancer cell line MCF-7; details: for IC50: Homo sapiens
Protocol: All our newly synthesized hybrids were evaluated for their in vitro anticancer activity by the standard MTT assay against a breast cancer cell line (MCF-7). MTT is a calorimetric assay which relies on the ability of live tumor cells to reduce yellow MTT (3-(4,5-dimethylthiazol-2-yl)-2,5-diphenyltetrazolium bromide) to purple formazan by mitochondrial dehydrogenases, then added DMSO to dissolve the purple formazan and quantified by measuring absorbance at a certain wavelength. The dose response curve for compounds-treated vs. untreated cells is used to quantify the amount of formazan produced to report on the effectiveness of the compounds. […] Cell line: Mammary gland breast cancer (MCF-7). The cell line was obtained from ATCC via Holding company for biological products and vaccines (VACSERA), Cairo, Egypt. […] The cell line elucidated above were used to determine the inhibitory effects of compounds on cell growth using the MTT assay. […] After incubation, the cells were treated with different concentrations of compounds and incubated for an additional 24 h. After 24 h of drug treatment, 20 µL of MTT solution at 5 mg/mL was added and incubated for 4 h. […] The relative cell viability in percentage was calculated as (A570 of treated samples/A570 of the untreated sample) × 100 [48].

WI38 = experiment: In vitro cytotoxicity against normal Human lung fibroblast (WI38) cell line; format: cell-based
[1] = as above; format: cell-based; details: human, WI38 normal lung fibroblast cells
ROS in MCF-7 cells = experiment: Intracellular ROS accumulation assay (Human ROS ELISA Kit); format: cell-based
Text: Reactive oxygen species (ROS) are chemically reactive species containing oxygen atoms including peroxides, superoxide, and hydroxyl radicals. They play an important role in the activation of apoptosis under physiological or pathological conditions. Direct or indirect ROS action can mediate the release of mitochondrial cytochrome c which trigger the induction of caspase. The intracellular level of ROS was estimated by The Human ROS ELISA Kit, which is based on standard sandwich enzyme-linked immunosorbent assay technology.
The Human ROS ELISA Kit is based on standard sandwich enzyme-linked immunosorbent assay technology. In which, the anti-Human ROS specific antibody has been pre-coated onto a 96-well plate and the human ROS present in the standards/samples bind to the capture antibody. Then biotinylated anti-Human ROS detection antibody is added to form an Ab-Ag-Ab sandwich. After a washing step, streptavidin-HRP is added and the unbound conjugate is removed with wash buffer. Subsequently, the addition of HRP substrate, TMB, results in the production of a blue-colored product that changes to yellow after the addition of acidic Stop Solution, and the density of yellow color is directly proportional to the amount of Human ROS captured on the plate. […] After that adding 90 μL TMB substrate, incubating 15–30 min at 37 °C, adding 50 μL Stop Solution and reading at 450 nm immediately. […]

caspase-6 = experiment: Caspase-6 level by ELISA in MCF-7 cells; format: cell-based, human; details: mean ± SD of three experiments
Protocol: (§1) Apoptosis can be excited by different stimuli via intrinsic and extrinsic pathways. It was reported that pin 1 inhibition involving apoptosis was performed via intrinsic mitochondrial l) pathways. […] The Bax/Bcl-2 ratio plays an important role in controlling the release of mitochondrial cytochrome c, after its release to the cytosol, caspase 9 is activated which can mediate downstream caspase activation including: caspase-3, caspase-6, and caspase-7 that obligated cells to apoptosis. Based on the above, we examined compound 8 capability to trigger intrinsic apoptotic pathways by affecting the expression of these markers in MCF-7 cells. […] In addition, it elevated the level of cytochrome C by about 2.49-fold compared to the control. […]
(§2) The level of BAX, Bcl-2, cytochrome C, and caspases 6, 7, and 9 were estimated using ELISA colorimetric kits; for BAX (DRG® Human Bax ELISA, EIA-4487), Bcl-2 (Zymed® Bcl-2 ELISA Kit), cytochrome c (Abcam cytochrome c Human ELISA kit, ab119521), caspase-6 (Human CASP6, ELISA Kit, MBS2533323), caspase-7 (Caspase-7 (Human) ELISA Kit, E4295-100), caspase-9 (DRG® Caspase-9 (human) ELISA, EIA-4860). […] This lysate was diluted in Standard Diluent Buffer all over the assay, then by using a microplate reader set at 450 nm, the optical density of each well was determined within 30 min to determine the human active BAX, Bcl-2, cytochrome C, caspases 6, 7 and 9 content.

caspase-9 = experiment: Caspase-9 level by ELISA in MCF-7 cells; format: cell-based, human
Protocol: as §1, §2

cytochrome C = experiment: Cytochrome c level by ELISA in MCF-7 cells; format: cell-based, human
Protocol: as §1, §2

caspase-7 = experiment: Caspase-7 level by ELISA in MCF-7 cells; format: cell-based, human
Protocol: as §1, §2

MCF-7 cells [2] = experiment: Annexin V-FITC/PI dual staining apoptosis assay; format: cell-based, human; details: MCF-7, 2 µM, 24 h
Protocol: This assay was performed using a breast MCF-7 cell line to determine the percentage of apoptosis induced by compound 8, in which MCF-cells were incubated with compound 8 at 2 µM concentration for 24 h.
Apoptosis detection was performed by using Annexin V-FITC and PI apoptosis kit (eBioscience^TM, San Diego, CA, USA). Mcf cells were plated at a 600,000 cells/mL density onto a six well plate. After 24 h of incubation, the cells were treated with compound 8 at […]. Cells grown in media containing an equivalent amount of DMSO served as solvent control. After 24 h, the cells were stained with an Annexin V-FITC conjugate and propidium iodide (PI), and the percentage of apoptotic, necrotic, and living cells was determined according to the protocol provided by the Annexin V-FITC and PI apoptosis kit. The cells’ emitted fluorescence was analyzed by flow cytometry (NovoCyte, ACEA Biosciences Inc., San Diego, CA, USA) through the NovoExpress 1.3.0 software (ACEA Biosciences Inc., San Diego, CA, USA), acquiring 1 × 104 events per sample using the population plot “dot plot”, where each point corresponds to a single event with a specific fluorescence signal about the axes; Annexin V-FITC green fluorescence in abscissa vs. PE red fluorescence inordinate.

BAX = BAX level by ELISA in MCF-7 cells; format: cell-based, human
Protocol: as §1, §2

Bcl-2 = Bcl-2 level by ELISA in MCF-7 cells; format: cell-based, human
Protocol: as §1, §2

MCF-7 cells [3] = experiment: Cell cycle distribution / DNA content by flow cytometry; format: cell-based, human; details: MCF-7, 2 µM, 24 h
Pin1 = Pin1 (Homo sapiens, UniProt Q13526); experiment: Pin1 inhibition assay (SensoLyte Green Pin1 Assay Kit); format: biochemical; set-up: purchased; details: means ± SD of three experiments
Protocol: The ability of the synthesized compounds to inhibit the Pin1 activity was evaluated using the SensoLyte® Green Pin1 Assay Kit. This assay is based on using a fluorogenic substrate which was pretreated to convert it into the cis isomer. Pin1 can change this substrate into the trans isomer that is easily cleaved to generate a fluorescent signal.

Chain of Pin1 (Q13526 whole entry): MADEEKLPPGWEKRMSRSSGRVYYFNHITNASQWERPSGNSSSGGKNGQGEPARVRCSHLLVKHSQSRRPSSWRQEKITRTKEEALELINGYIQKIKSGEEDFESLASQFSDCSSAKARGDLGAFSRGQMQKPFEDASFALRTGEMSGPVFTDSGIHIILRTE

In the case of `CN(C)c1ccc(C2CC(c3nc4cc(Cl)c(Cl)cc4[nH]3)=NO2)cc1` (stereo not shown) [Compound 8, 4-(3-(5,6-Dichloro-1H-benzo[d]imidazol-2-yl)-4,5-dihydroisoxazol-5-yl)-N,N-dimethylaniline], the IC50 (MCF-7; MCF7, 24 h, read-out: In Vitro Cytotoxicity IC50 MCF-7, MTT assay, 24 h treatment) is reported as 8.7 ± 0.6 µM, the IC50 (MCF-7; MCF7, read-out: IC50 against breast cancer cell line (MCF-7), MTT assay, section 2.2) is reported as 8.76 µM and the “Cytotoxic activity class against MCF-7” value (MCF-7; class by IC50) is reported as “very strong (1–10 (very strong))”. For the same molecule, the IC50 (WI38) was 71.6 ± 4 µM, the IC50 at 24 h [1] was 71.6 µM and the “ROS accumulation higher than the control cells” value (ROS in MCF-7 cells) was 1.258 fold. For the same molecule, the Casp.6 level (caspase-6) was 0.48 ± 0.02 ng/mL, the “Enhancement of caspase 9 level compared to the control” value (caspase-9) was about 8.97 fold and the Casp.9 level (caspase-9; mean ± SD of three experiments) was 20.86 ± 0.73 ng/mL. The “Elevation of cytochrome C level compared to the control” value (cytochrome C) was “about 2.49 fold”, the Cytoc level (cytochrome C; mean ± SD of three experiments) was 0.62 ± 0.02 ng/mL and the “Enhancement of caspase 7 level compared to the control” value (caspase-7) was about 9.06 fold. The Casp.7 level (caspase-7; mean ± SD of three experiments) was 4.17 ± 0.11 ng/mL, the “Apoptosis Early” value (MCF-7 cells [2]) was 3.7% and 3.71% and the “Apoptosis Late” value (MCF-7 cells [2]) was 15.32%. The “Apoptosis Total” value (MCF-7 cells [2]) was 38.25%, the “Increase of apoptosis (15.32%) over untreated cells” value (MCF-7 cells [2]) was 128 fold and the Necrosis (MCF-7 cells [2]) was 19.22%. For the same molecule, the “Increase of Bax level compared to the control” value (BAX) was 4.63 fold, the BAX level (BAX; mean ± SD of three experiments) was 268.71 ± 9.20 pg/mL and the “Decrease of Bcl-2 level compared to the control” value (Bcl-2) was 39%. The BCL-2 level (Bcl-2; mean ± SD of three experiments) was 2.81 ± 0.07 ng/mL, the “DNA Content %G0-G1” value (MCF-7 cells [3]) was 44.29% and the “DNA Content %G2-M” value (MCF-7 cells [3]) was 6.45%. The “DNA Content %Pre G1” value (MCF-7 cells [3]) was 38.25%, the “DNA Content %S” value (MCF-7 cells [3]) was 49.26% and the IC50 (Pin1) was 0.00076 ± 4e-05 µM. For the same molecule, the melting point was 155 to 158 °C.

From article PMC9414874, “New Benzimidazoles Targeting Breast Cancer: Synthesis, Pin1 Inhibition, 2D NMR Binding, and Computational Studies” (Molecules, 2022)
